Data published in ChEMBL document CHEMBL5120881, “Silencing Tautomerization to Isolate Unstable Physalins from Physalis minima” (J Nat Prod, 2022).

Tests used:
RAW264.7 = assay: Antiinflammatory activity in mouse RAW264.7 assessed as inhibition of LPS-stimulated NO production pretreated with LPS followed by compund addition by Griess reagent based microplate reader assay; format: functional, cell-based; conditions: Mus musculus, RAW264.7
[1] = Cytotoxicity against mouse RAW264.7 cells assessed as reduction in cell viability incubated for 48 hrs by CCK8 assay; format: toxicity, cell-based
SGC-7901 = assay: Antiproliferative activity against human SGC-7901 cells assessed as reduction in cell viability incubated for 48 hrs by CCK8 assay; format: functional, cell-based; conditions: SGC-7901, 48 h
[2] = Cytotoxicity against human L02 cells assessed as reduction in cell viability incubated for 48 hrs by CCK8 assay; format: toxicity, cell-based
MCF7 = assay: Antiproliferative activity against human MCF7 cells assessed as reduction in cell viability incubated for 48 hrs by CCK8 assay; format: functional, cell-based; conditions: MCF7, 48 h
A549 = assay: Antiproliferative activity against human A549 cells assessed as reduction in cell viability incubated for 48 hrs by CCK8 assay; format: functional, cell-based; conditions: A549, 48 h
HepG2 = assay: Antiproliferative activity against human HepG2 cells assessed as reduction in cell viability incubated for 48 hrs by CCK8 assay; format: functional, cell-based; conditions: HepG2, 48 h

Structure (SMILES) | IC50 (RAW264.7) | IC50 at 48 h [1] | IC50 (SGC-7901) | IC50 at 48 h [2] | IC50 (MCF7) | IC50 (A549) | IC50 (HepG2)
CNC(=N)NCCC[C@H](N)C(=O)OC | 42.8 µM |  |  |  |  |  | 
C[C@@]12C[C@H]3OC(=O)[C@@H]1CO[C@]14O[C@@]5([C@H]2C1=O)[C@@]3(C)OC(=O)[C@@]5(O)CC[C@H]1[C@H]4C[C@@H](O)[C@@]2(O)CC=CC(=O)[C@]12C | 49.8 µM | > 50 µM | > 50 µM | > 50 µM | > 50 µM | > 50 µM | > 50 µM
C[C@@]12C[C@H]3OC(=O)[C@@H]1CO[C@]14O[C@@]5([C@H]2C1=O)[C@@]3(C)OC(=O)[C@@]5(O)CC[C@H]1[C@H]4C[C@H]2O[C@]23CC=CC(=O)[C@]13C | 7.9 µM | > 50 µM | > 50 µM | > 50 µM | > 50 µM | > 50 µM | > 50 µM
COC(=O)C[C@H](O)C(=O)O[C@]12CC=CC(=O)[C@]1(C)[C@H]1CC[C@]3(O)C(=O)O[C@@]4(C)[C@H]5C[C@]6(C)[C@@H](CO[C@]7(O[C@@]43[C@H]6C7=O)[C@@H]1C[C@H]2O)C(=O)O5 | 28 µM | > 50 µM | > 50 µM | > 50 µM | > 50 µM | > 50 µM | > 50 µM
C[C@]12C(=O)C=CC=C1[C@H](O)C[C@@H]1[C@@H]2CC[C@]2(O)C(=O)O[C@@]3(C)[C@H]4C[C@@]5(C)[C@@H]6C(=O)[C@@]1(OC[C@@]5(O)C(=O)O4)O[C@@]632 | 6.4 µM | > 50 µM | > 50 µM | > 50 µM | > 50 µM | > 50 µM | > 50 µM
COC(=O)CCC(=O)O[C@]12CC=CC(=O)[C@]1(C)[C@H]1CC[C@]3(O)C(=O)O[C@@]4(C)[C@H]5C[C@]6(C)[C@@H](CO[C@]7(O[C@@]43[C@H]6C7=O)[C@@H]1C[C@H]2O)C(=O)O5 | 3.1 µM | > 50 µM | > 50 µM | > 50 µM | > 50 µM | > 50 µM | > 50 µM
C[C@@]12C[C@H]3OC(=O)[C@@H]1CO[C@]14C(=O)O[C@@]5([C@H]21)[C@@]3(C)OC(=O)[C@@]5(O)CC[C@H]1[C@H]4CC[C@@]2(O)CC=CC(=O)[C@]12C | 78.7 µM | > 50 µM | > 50 µM | > 50 µM | > 50 µM | > 50 µM | > 50 µM
C[C@@H]1C(=O)O[C@@H]2C[C@@]1(C)[C@@H]1C(=O)[C@@]3(O)O[C@]14[C@@]2(C)OC(=O)[C@@]4(O)CC[C@H]1[C@H]3C[C@@H](O)[C@@]2(O)CC=CC(=O)[C@]12C | 56.6 µM | > 50 µM | > 50 µM | > 50 µM | > 50 µM | > 50 µM | > 50 µM
CO[C@]12CC=CC(=O)[C@]1(C)[C@H]1CC[C@]3(O)C(=O)O[C@@]4(C)[C@H]5C[C@]6(C)[C@@H](CO[C@@]7(O[C@@]43[C@H]6C7=O)[C@@H]1C[C@H]2O)C(=O)O5 | 75.3 µM | > 50 µM | > 50 µM | > 50 µM | > 50 µM | > 50 µM | > 50 µM
CO[C@]12C=CCC(=O)[C@]1(C)[C@H]1CC[C@]3(O)C(=O)O[C@@]4(C)[C@H]5C[C@]6(C)[C@@H](CO[C@]7(O[C@@]43[C@H]6C7=O)[C@@H]1C[C@H]2O)C(=O)O5 | 23.8 µM | > 50 µM | > 50 µM | > 50 µM | > 50 µM | > 50 µM | > 50 µM
C[C@]12C(=O)C=CCC1=CC[C@@H]1[C@@H]2[C@H]2C[C@]3(O)C(=O)O[C@@]4(C)[C@H]5C[C@@]6(C)[C@@H]7[C@@]2(O)[C@@]1(OC[C@H]6C(=O)O5)O[C@@]743 | 9.5 µM | > 50 µM | > 50 µM | > 50 µM | > 50 µM | > 50 µM | > 50 µM
C[C@@]12C[C@H]3OC(=O)[C@]1(O)CO[C@@]14O[C@@]5([C@H]2C1=O)[C@@]3(C)OC(=O)[C@@]5(O)CC[C@H]1[C@H]4C[C@H](O)[C@]2(O)CC=CC(=O)[C@]12C | 14.9 µM | > 50 µM | > 50 µM | > 50 µM | > 50 µM | > 50 µM | > 50 µM
